Results as given in patent US12357696B2, “Preserved etherified cyclodextrin derivatives containing liquid aqueous pharmaceutical composition” (Boehringer Ingelheim Vetmedica GmbH, priority 2013, dated 2025).

How the values were obtained:
[1] = test system: Zygosaccharomyces rouxii, Candida albicans and Aspergillus brasiliensis; assay: Efficacy of microbial preservation, Example 4, overall; assay type: cell-based; conditions: ascorbic acid 0.20-0.70 g/100 mL with sorbic acid 0.3 g/100 mL, pH 3.5
[2] = cited from earlier work
[3] = Solubility of pimobendan in cyclodextrin solutions (FIG. 1-3); assay type: physicochemical
Method: The last row of columns represents the reference control, which is the respective solution without preservative (“none”). […] FIG. 2 is a schematic diagram wherein the solubility of pimobendan is shown as a function of type and concentration of polymer, salt or complexation agent. In order to determine the degree of complexation, the effect of three different polymers, three different salts and one chelating agent on the solubility of pimobendan was tested. The pH of the solution was 4.5. Metolose is hydroxypropyl methylcellulose=HPMC=Hypromellose. Klucel ELF is hydroxypropyl cellulose=HPC. The number after the chemical name indicates the concentration of additive in % (m/V). FIG. 3 is a schematic diagram wherein the solubility of pimobendan is shown as a function of concentration of hydroxypropyl-ß-cyclodextrin and presence of sodium sorbate and hydroxypropyl methylcellulose (HPMC). Therefore, in FIG. 3 the effect of sodium sorbate and HPMC on the solubility of pimobendan was illustrated, and also the effect of concentration of hydroxypropyl-ß-cyclodextrin on the pimobendan solubility. Concentrations of sodium sorbate of 1.0% (m/V) and of HPMC of 0.1% (m/V) were used. The pH value was set to 4.5 using hydrochloric acid in all solutions.

[4] = assay type: physicochemical
Method: As already described in EP 0 439 030 and WO 2005/08467, pimobendan drug substance is insoluble in water: 1 g drug substance is soluble in more than 10,000 mL. At pH 7 the solubility of pimobendan is only about 0.1 mg per 100 mL.
The solubility of pimobendan in aqueous solutions is depends on the pH. […] However, the local tolerance and palatability as well as the chemical stability of such a formulation are not acceptable. This is due to the fact that the target dose would require a drug concentration in solution which can only be achieved by a pH of about pH 2.5 and lower. […] Accordingly, a pimobendan formulation comprising up to 1.5 mg/mL of pimobendan would need an increase in solubility at pH 7 by a factor of about 1000 to 1500, not achieved in prior art formulations for oral administration up to now.

[5] = test system: E. coli, P. aeruginosa, S. aureus, C. albicans, A. brasiliensis; assay: Antimicrobial efficacy, Example 3, overall evaluation of Tables 6 and 7; assay type: cell-based; conditions: solutions of Table 4
Excerpt: The testing criteria applied are those for evaluation of antimicrobial activity for oral preparations according to Pharm. Eur. 7 (tests at 14 days and 28 days). The acceptance criteria of the Ph. Eur. 7, Method 5.1.3 “Efficacy of Antimicrobial Preservation” USP 34, and Method <51> Antimicrobial Effectiveness Testing are listed in the following Table 2.

## O=C1O[C@H]([C@@H](O)CO)C(O)=C1O [ascorbic acid]
[1]
  efficacy of preservation versus concentration of antioxidant: increasing efficacy of preservation with increasing concentration of antioxidant

## COc1ccc(-c2nc3ccc(C4=NNC(=O)CC4C)cc3[nH]2)cc1 (stereo not shown) [pimobendan, 4,5-dihydro-6-[2-(4-methoxyphenyl)-1H-benzimidazol-5-yl]-5-methyl-3(2H)-pyridazinone]
[2]; pH 7
  solubility of pimobendan: about 0.1 mg per 100 mL
[2]; per 1 g drug substance, water
  water in which 1 g drug substance is soluble: more than 10,000 mL
[3]; 25% (m/V) cyclodextrin, pH 3.5, 4.5, 5.5, 7, 9
  solubility of pimobendan as a function of pH value (FIG. 1): highest solubility of pimobendan occurs at pH=3.5
[3]; 25% (m/V) cyclodextrin, versus reference control without preservative
  solubility of pimobendan as a function of preservative (FIG. 1): highest pimobendan solubility is achieved with sodium sorbate
[3]; 25% (m/V) hydroxypropyl-ß- or hydroxypropyl-gamma-cyclodextrin
  solubility of pimobendan as a function of cyclodextrin type (FIG. 1): more soluble with hydroxypropyl-ß-cyclodextrin than hydroxypropyl-gamma-cyclodextrin
[3]; HPMC 0.1% (m/V), hydroxypropyl-ß-cyclodextrin, pH 4.5
  solubility of pimobendan in presence of HPMC (FIG. 3): significantly increases
[3]; pH 4.5
  solubility of pimobendan on addition of HPMC (FIG. 2): significant increase
  solubility of pimobendan on addition of salts or disodium edetate (FIG. 2): does not significantly increase
[3]; sodium sorbate 1.0% (m/V) and HPMC 0.1% (m/V), pH 4.5
  solubility of pimobendan with both HPMC and sodium sorbate (FIG. 3): significantly increased
[3]; sodium sorbate 1.0% (m/V), hydroxypropyl-ß-cyclodextrin, pH 4.5
  solubility of pimobendan in presence of sodium sorbate (FIG. 3): significantly increases
[4]
  solubility of pimobendan in aqueous solutions depending on pH: significantly higher at pH 1 to 2.5 than at higher pH values

## C/C=C/C=C/C(=O)O [sorbic acid]
[5]
  antimicrobial efficacy (overall statement on Tables 6 and 7): good antimicrobial efficacy
